System: BCKDHA and mTOR pathway members in mdx muscle
Assay: Protein analysis of BCKDHA and mTOR pathway members in mdx muscle
Assay type: in vivo, mouse
Details: weekly prednisone
Description: Animal handling and steroid regimens. Mice were housed in a pathogen-free dedicated vivarium in accordance with Institutional Animal Care and Use Committee (IACUC) guidelines. Euthanasia was performed through carbon dioxide inhalation followed by cervical dislocation and heart removal. All methods using living animals in this study were performed in ethical accordance with the American Veterinary Medical Association (AVMA) and under protocols fully approved by both the Institutional Animal Care and Use Committee (IACUC) at Northwestern University Feinberg School of Medicine (protocol number ISO00000761). Consistent with the ethical approvals, all efforts were made to minimize suffering. Mice were fed ad libitum with Mouse Breeder Sterilizable Diet (#7904; Harlan Teklad, Indianapolis, Ind.) and maintained on a 12-hour light/dark cycle. mdx mice from the DBA/2J background were obtained from the Jackson Laboratory (Bar Harbor, Me.; stock #013141) and interbred. Male mice were used for reported experiments. Age at start was approximately 6 months for short-term experiments, approximately 6 weeks for long-term experiments. Dysferlin-null (Dysf-null) mice from the 129T2/SvEmsJ background were previously characterized (Demonbreun et al., 2011; Demonbreun et al., 2014). Age at start was approximately 9 months for long-term experiments. For experiments with Dysf-null and wildtype mice, both females and males (approximately 1:1 ratio) were randomized in treatment groups. […] Dosing was based on weekly weight measurements (1 mg/kg body weight, (Sali et al., 2012)) in 100 μl total PBS volume per dose. Mice were injected daily via intraperitoneal injection at 7 AM. On injection days, stock solutions stored at −20° C. were diluted into sterile Eppendorf tubes containing sterile phosphate buffered saline (PBS) (#14190; Thermo Fisher, Waltham, Mass.). Puromycin (cat #A1113803, Thermo Scientific, Waltham, Mass.) was administered i.p. as 0.040 μmol/body g, and tissues were snap-frozen 30 minutes after injection. Sterile BD Micro-Fine IV Insulin Syringes (#14-829-1A; Fisher Scientific, Waltham, Mass.) were used to inject the intraperitoneal cavity of non-sedated animals. All animal analyses both during treatment and at endpoint were conducted blinded to treatment groups.
Protein analysis. Protein lysates from approximately 50 mg muscle tissue were obtained with homogenization at the TissueLyser II (cat #85300; Qiagen, Hilden, Germany) for two rounds of 2 minutes each with 2 minutes pause in between, using sample plates chilled at −20° C. o/n and one stainless 5 mm bead per sample (cat #69989; Qiagen, Hilden, Germany). […]

[1] = mdx muscle, 12-week-long treatment

## C[C@]12C=CC(=O)C=C1CC[C@@H]1[C@@H]2C(=O)C[C@@]2(C)[C@H]1CC[C@]2(O)C(=O)CO [prednisone, Prednisone]
[1]
  levels of mTOR-bound RagC and phosphorylation of S6K and 4EBP1: increased
  protein translation and muscle mass (puromycin incorporation and myofiber size): increased
Quadriceps muscle of mdx mice
  phosphorylation of BCKDHA: reduced
  total levels of branched chain keto acid dehydrogenase (BCKDHA): increased

From patent US20220062299A1, “USE OF GLUCOCORTICOID STEROIDS IN PREVENTING AND TREATING CONDITIONS OF MUSCLE WASTING, AGING AND METABOLIC DISORDER” (NORTHWESTERN UNIVERSITY, priority 2018, published 2022)
